The record followed here is patent US10479780B2, “Aminopyrazole derivatives” (Chugai Seiyaku Kabushiki Kaisha, priority 2015, dated 2019).

Holding throughout (format): biochemical
In one experiment the target is T1, human Src enzyme (Homo sapiens, UniProt P12931).
T1 construct: purchased Carna Biosciences, Inc. 08-173
As to the kind of experiment: Src enzyme inhibitory activity (time-resolved fluorometry, biotinylated peptide phosphorylation). Particulars: biotinylated peptide phosphorylation, read-out: SRC_IC50. In a few lines:
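Compounds were tested for blocking tyrosine phosphorylation of a biotinylated peptide substrate by recombinant human Src. Phosphorylated product was quantified by time-resolved fluorometry using europium cryptate and XL665 conjugates, and IC50 was calculated against the compound-free control.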

For the next experiment, the target named is T2, human Yes1 enzyme (Homo sapiens, UniProt P07947).
T2 construct: made in house
As to the kind of experiment: Yes1 enzyme inhibitory activity (time-resolved fluorometry, biotinylated peptide phosphorylation). Particulars: biotinylated peptide phosphorylation, read-out: YES_IC50. In a few lines:
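Inhibition was expressed against a compound-free control to give IC50, using TR-FRET read-out (Eu-cryptate anti-pTyr antibody, streptavidin-XL665).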

For the next experiment, the target named is T3, human Lck enzyme (Homo sapiens, UniProt P06239).
T3 construct: purchased Carna Biosciences, Inc. 08-170
As to the kind of experiment: Lck enzyme inhibitory activity (time-resolved fluorometry, biotinylated peptide phosphorylation). Particulars: biotinylated peptide phosphorylation, read-out: LCK_IC50. In a few lines:
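Readout pairs a europium cryptate-labelled anti-phosphotyrosine antibody with XL665-streptavidin, measured by time-resolved fluorescence. IC50 derived from percent inhibition against untreated controls.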

Molecules are shown by their SMILES. pIC50: −log10 of the molar value.

T2 sequence (P07947 whole entry): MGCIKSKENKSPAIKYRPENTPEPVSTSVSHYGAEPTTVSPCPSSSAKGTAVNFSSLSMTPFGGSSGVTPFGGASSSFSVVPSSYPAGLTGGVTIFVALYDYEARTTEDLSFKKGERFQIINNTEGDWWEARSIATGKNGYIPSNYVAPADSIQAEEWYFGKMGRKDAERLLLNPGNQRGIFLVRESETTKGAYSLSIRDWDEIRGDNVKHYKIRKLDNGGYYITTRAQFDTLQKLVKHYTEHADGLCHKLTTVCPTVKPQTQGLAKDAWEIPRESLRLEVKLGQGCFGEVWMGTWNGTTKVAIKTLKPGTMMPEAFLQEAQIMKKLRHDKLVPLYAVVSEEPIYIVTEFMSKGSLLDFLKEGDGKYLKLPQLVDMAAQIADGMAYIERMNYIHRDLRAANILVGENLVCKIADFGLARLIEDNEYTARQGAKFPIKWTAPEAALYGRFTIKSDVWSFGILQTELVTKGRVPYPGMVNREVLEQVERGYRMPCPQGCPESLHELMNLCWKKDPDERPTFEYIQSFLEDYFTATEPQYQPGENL
T1 sequence (P12931 whole entry): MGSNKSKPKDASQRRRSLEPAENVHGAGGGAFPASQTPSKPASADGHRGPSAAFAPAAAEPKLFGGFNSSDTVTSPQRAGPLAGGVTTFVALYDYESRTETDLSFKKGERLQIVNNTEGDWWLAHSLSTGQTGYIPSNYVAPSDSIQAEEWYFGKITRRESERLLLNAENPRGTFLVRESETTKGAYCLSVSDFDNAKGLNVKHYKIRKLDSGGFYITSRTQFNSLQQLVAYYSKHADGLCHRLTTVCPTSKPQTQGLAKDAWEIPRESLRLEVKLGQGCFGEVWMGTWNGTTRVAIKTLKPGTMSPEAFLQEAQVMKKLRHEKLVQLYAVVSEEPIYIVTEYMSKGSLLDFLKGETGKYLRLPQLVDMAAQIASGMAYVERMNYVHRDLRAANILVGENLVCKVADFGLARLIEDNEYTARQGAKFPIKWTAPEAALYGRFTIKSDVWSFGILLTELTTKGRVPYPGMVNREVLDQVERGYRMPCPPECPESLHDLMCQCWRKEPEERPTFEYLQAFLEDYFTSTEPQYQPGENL
T3 sequence (P06239 whole entry): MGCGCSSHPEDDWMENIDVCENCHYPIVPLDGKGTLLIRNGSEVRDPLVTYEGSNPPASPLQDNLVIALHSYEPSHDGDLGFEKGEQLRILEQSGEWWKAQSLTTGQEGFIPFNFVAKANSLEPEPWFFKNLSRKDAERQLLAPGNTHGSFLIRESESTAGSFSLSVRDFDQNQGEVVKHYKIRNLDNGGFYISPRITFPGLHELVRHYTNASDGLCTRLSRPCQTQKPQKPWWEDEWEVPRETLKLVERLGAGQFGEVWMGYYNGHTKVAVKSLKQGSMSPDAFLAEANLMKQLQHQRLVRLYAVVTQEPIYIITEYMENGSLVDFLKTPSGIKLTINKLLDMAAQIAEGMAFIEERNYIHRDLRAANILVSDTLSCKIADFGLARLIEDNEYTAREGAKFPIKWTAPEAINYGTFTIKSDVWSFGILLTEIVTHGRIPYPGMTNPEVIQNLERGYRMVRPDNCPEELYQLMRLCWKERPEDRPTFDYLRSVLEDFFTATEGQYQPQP

Turning to `COc1ccnc(S(=O)(=O)Nc2cc3[nH]c(C(=O)c4cnn(-c5cnc(Oc6c(F)cccc6F)cc5C)c4N)cc3cc2F)c1` [Example 5-1-513, N-[2-[5-amino-1-[6-(2,6-difluorophenoxy)-4-methylpyridin-3-yl]pyrazole-4-carbonyl]-5-fluoro-1H-indol-6-yl]-4-methoxypyridine-2-sulfonamide], the pIC50 was 6.29 on human Src enzyme, 8.43 on human Yes1 enzyme and 7.01 on human Lck enzyme.
The matching figures for `COc1ccnc(S(=O)(=O)Nc2cc3[nH]c(C(=O)c4cnn(-c5cnc(Oc6ccccc6F)cc5C)c4N)cc3cc2F)c1` [Example 5-1-514, N-[2-[5-amino-1-[6-(2-fluorophenoxy)-4-methylpyridin-3-yl]pyrazole-4-carbonyl]-5-fluoro-1H-indol-6-yl]-4-methoxypyridine-2-sulfonamide]: 6.12, 8.48 and 6.85.
The matching figures for `Cc1cc2cc(C(=O)c3cnn(-c4ccc(Oc5ccccc5F)cc4C)c3N)[nH]c2cc1NS(=O)(=O)c1cccc(F)n1` [Example 5-1-515, N-[2-[5-amino-1-[4-(2-fluorophenoxy)-2-methylphenyl]pyrazole-4-carbonyl]-5-methyl-1H-indol-6-yl]-6-fluoropyridine-2-sulfonamide]: 6.55, 8.62 and 7.23.
As for `Cc1cc2cc(C(=O)c3cnn(-c4cnc(Oc5c(F)cccc5F)cc4C)c3N)[nH]c2cc1NS(=O)(=O)c1cccc(F)n1` [Example 5-1-516, N-[2-[5-amino-1-[6-(2,6-difluorophenoxy)-4-methylpyridin-3-yl]pyrazole-4-carbonyl]-5-methyl-1H-indol-6-yl]-6-fluoropyridine-2-sulfonamide], the pIC50 on human Src enzyme is 6.27; on human Yes1 enzyme, 8.29; on human Lck enzyme it was 7.04.
In the same order, the values of `Cc1cc(Oc2ccccc2F)ccc1-n1ncc(C(=O)c2cc3cc(F)c(NS(=O)(=O)c4cccc(F)n4)cc3[nH]2)c1N` [Example 5-1-517, N-[2-[5-amino-1-[4-(2-fluorophenaxy)-2-methylphenyl]pyrazole-4-carbonyl]-5-fluoro-1H-indol-5-yl]-6-fluoropyridine-2-sulfonamide] are 6.52, 8.68 and 7.47.
In the same order, the values of `Cc1cc(Oc2c(F)cccc2F)ncc1-n1ncc(C(=O)c2cc3cc(F)c(NS(=O)(=O)c4cccc(F)n4)cc3[nH]2)c1N` [Example 5-1-518, N-[2-[5-amino-1-[6-(2,6-difluorophenoxy)-4-methylpyridin-3-yl]pyrazole-4-carbonyl]-5-fluoro-1H-indol-6-yl]-6-fluoropyridine-2-sulfonamide] are 6.24, 8.24 and 7.09.
The matching figures for `Cc1cc(Oc2ccccc2F)ncc1-n1ncc(C(=O)c2cc3cc(F)c(NS(=O)(=O)c4cccc(F)n4)cc3[nH]2)c1N` [Example 5-1-519, N-[2-[5-amino-1-[6-(2-fluorophenoxy)-4-methylpyridin-3-yl]pyrazole-4-carbonyl]-5-fluoro-1H-indol-6-yl]-6-fluoropyridine-2-sulfonamide]: 6.15, 8.34 and 6.92.
Turning to `Cc1cnc(F)c(S(=O)(=O)Nc2cc3[nH]c(C(=O)c4cnn(-c5ccc(Oc6ccccc6F)cc5C)c4N)cc3cc2C)c1` [Example 5-1-520, N-[2-[5-amino-1-[4-(2-fluorophenoxy)-2-methylphenyl]pyrazole-4-carbonyl]-5-methyl-1H-indol-5-yl]-2-fluoro-5-methylpyridine-3-sulfonamide], the pIC50 on human Src enzyme was 6.57; at human Yes1 enzyme, 8.57; at human Lck enzyme, 7.17.
As to `Cc1cnc(F)c(S(=O)(=O)Nc2cc3[nH]c(C(=O)c4cnn(-c5cnc(Oc6c(F)cccc6F)cc5C)c4N)cc3cc2C)c1` [Example 5-1-521, N-[2-[5-amino-1-[6-(2,6-difluorophenoxy)-4-methylpyridin-3-yl]pyrazole-4-carbonyl]-5-methyl-1H-indol-6-yl]-2-fluoro-5-methylpyridine-3-sulfonamide], the pIC50 at human Src enzyme is 6.33; on human Yes1 enzyme it was 8.24; on human Lck enzyme it was 6.74.
For the compound `Cc1cnc(F)c(S(=O)(=O)Nc2cc3[nH]c(C(=O)c4cnn(-c5ccc(Oc6ccccc6F)cc5C)c4N)cc3cc2F)c1` [Example 5-1-522, N-[2-[5-amino-1-[4-(2-fluorophenoxy)-2-methylphenyl]pyrazole-4-carbonyl]-5-fluoro-1H-indol-6-yl]-2-fluoro-5-methylpyridine-3-sulfonamide], the figures for the pIC50 on human Src enzyme, at human Yes1 enzyme and at human Lck enzyme were 6.60, 8.74 and 6.92, respectively.
The matching figures for `Cc1cnc(F)c(S(=O)(=O)Nc2cc3[nH]c(C(=O)c4cnn(-c5cnc(Oc6c(F)cccc6F)cc5C)c4N)cc3cc2F)c1` [Example 5-1-523, N-[2-[5-amino-1-[6-(2,6-difluorophenoxy)-4-methylpyridin-3-yl]pyrazole-4-carbonyl]-5-fluoro-1H-indol-6-yl]-2-fluoro-5-methylpyridine-3-sulfonamide]: 6.35, 8.20 and 6.70.
`Cc1cnc(F)c(S(=O)(=O)Nc2cc3[nH]c(C(=O)c4cnn(-c5cnc(Oc6ccccc6F)cc5C)c4N)cc3cc2F)c1` [Example 5-1-524, N-[2-[5-amino-1-[6-(2-fluorophenoxy)-4-methylpyridin-3-yl]pyrazole-4-carbonyl]-5-fluoro-1H-indol-6-yl]-2-fluoro-5-methylpyridine-3-sulfonamide]: the results for the pIC50 at human Src enzyme, at human Yes1 enzyme and at human Lck enzyme were 6.24, 8.24 and 6.68, respectively.
For the compound `Cc1cc2cc(C(=O)c3cnn(-c4ccc(Oc5ccccc5F)cc4C)c3N)[nH]c2cc1NS(=O)(=O)c1cccc(Cl)n1` [Example 5-1-525, N-[2-[5-amino-1-[4-(2-fluorophenoxy)-2-methylphenyl]pyrazole-4-carbonyl]-5-methyl-1H-indol-6-yl]-6-chloropyridine-2-sulfonamide], the pIC50 was 6.40 on human Src enzyme, 8.51 on human Yes1 enzyme and 7.14 on human Lck enzyme.
In the same order, the values of `Cc1cc2cc(C(=O)c3cnn(-c4cnc(Oc5c(F)cccc5F)cc4C)c3N)[nH]c2cc1NS(=O)(=O)c1cccc(Cl)n1` [Example 5-1-526, N-[2-[5-amino-1-[6-(2,6-difluorophenoxy)-4-methylpyridin-3-yl]pyrazole-4-carbonyl]-5-methyl-1H-indol-6-yl]-6-chloropyridine-2-sulfonamide] are 6.21, 8.10 and 6.60.
Turning to `Cc1cc(Oc2ccccc2F)ccc1-n1ncc(C(=O)c2cc3cc(F)c(NS(=O)(=O)c4cccc(Cl)n4)cc3[nH]2)c1N` [Example 5-1-527, N-[2-[5-amino-1-[4-(2-fluorophenoxy)-2-methylphenyl]pyrazole-4-carbonyl]-5-fluoro-1H-indol-6-yl]-6-chloropyridine-2-sulfonamide], the pIC50 was 6.30 at human Src enzyme, 8.49 at human Yes1 enzyme and 6.96 on human Lck enzyme.
